According to ChEMBL document CHEMBL1141710 (Bioorg Med Chem Lett, 2008):

What was measured:
Acetylcholinesterase = Acetylcholinesterase (Homo sapiens, UniProt P22303)
Description: Inhibition of human recombinant AChE

Cholinesterase = Cholinesterase (Homo sapiens, UniProt P06276)
Description: Inhibition of human recombinant BChE

[1] = biological target: Cholinesterases; ACHE & BCHE (Homo sapiens) (UniProt P06276+P22303); test: Selectivity ratio of Ki for human recombinant AChE to Ki for human recombinant BChE
Cholinesterases; ACHE & BCHE (Homo sapiens), sequence (P06276 whole entry, looked up): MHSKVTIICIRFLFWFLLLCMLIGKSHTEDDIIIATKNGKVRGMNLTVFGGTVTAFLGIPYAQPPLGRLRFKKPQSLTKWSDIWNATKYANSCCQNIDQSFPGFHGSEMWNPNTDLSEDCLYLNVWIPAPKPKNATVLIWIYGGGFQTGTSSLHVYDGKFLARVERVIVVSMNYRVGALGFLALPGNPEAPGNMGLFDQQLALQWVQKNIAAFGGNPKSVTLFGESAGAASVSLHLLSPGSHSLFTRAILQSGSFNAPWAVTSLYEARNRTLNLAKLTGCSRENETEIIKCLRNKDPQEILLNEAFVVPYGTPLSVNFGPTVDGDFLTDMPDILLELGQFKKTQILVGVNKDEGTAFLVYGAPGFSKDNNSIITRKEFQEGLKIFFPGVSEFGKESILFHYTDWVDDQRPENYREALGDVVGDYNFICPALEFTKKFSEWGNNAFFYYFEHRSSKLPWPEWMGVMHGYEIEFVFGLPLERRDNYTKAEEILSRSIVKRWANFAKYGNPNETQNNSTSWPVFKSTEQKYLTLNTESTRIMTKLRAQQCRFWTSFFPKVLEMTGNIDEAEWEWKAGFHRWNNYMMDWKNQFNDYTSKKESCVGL
Cholinesterases; ACHE & BCHE (Homo sapiens), sequence (P22303 whole entry, looked up): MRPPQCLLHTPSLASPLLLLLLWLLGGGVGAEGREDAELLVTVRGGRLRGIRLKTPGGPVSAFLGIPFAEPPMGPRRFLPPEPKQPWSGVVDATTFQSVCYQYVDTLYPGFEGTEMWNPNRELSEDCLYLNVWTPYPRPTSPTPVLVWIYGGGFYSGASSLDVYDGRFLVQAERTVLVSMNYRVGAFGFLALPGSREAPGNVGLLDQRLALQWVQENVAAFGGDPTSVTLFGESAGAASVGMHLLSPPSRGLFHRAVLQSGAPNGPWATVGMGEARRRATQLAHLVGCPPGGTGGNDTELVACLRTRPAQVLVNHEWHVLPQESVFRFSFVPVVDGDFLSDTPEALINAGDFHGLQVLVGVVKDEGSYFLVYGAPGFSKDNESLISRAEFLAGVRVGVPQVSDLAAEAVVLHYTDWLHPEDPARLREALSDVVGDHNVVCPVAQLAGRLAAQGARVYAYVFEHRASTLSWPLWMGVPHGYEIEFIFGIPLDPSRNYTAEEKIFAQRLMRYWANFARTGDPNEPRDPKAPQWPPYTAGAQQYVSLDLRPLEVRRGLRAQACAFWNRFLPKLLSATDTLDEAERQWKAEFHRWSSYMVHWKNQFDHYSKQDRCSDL

Cholinesterase, sequence (P06276 whole entry): as the sequence (P06276 whole entry, looked up) above
Acetylcholinesterase, sequence (P22303 whole entry): as the sequence (P22303 whole entry, looked up) above

Structure (SMILES): O=C(CNC(=O)[C@@H]1Cc2ccccc2CN1)Nc1c2c(nc3ccccc13)CCCC2
- Ki (Acetylcholinesterase): 4130 nM
- Ki (Cholinesterase): 580 nM

Structure (SMILES): N[C@@H](Cc1c[nH]c2ccccc12)C(=O)NCCC(=O)Nc1c2c(nc3ccccc13)CCCC2
- Ratio Ki [1]: 197
- Ki (Acetylcholinesterase): 34000 nM
- Ki (Cholinesterase): 173 nM

Structure (SMILES): N[C@@H](CCC(=O)NCCNc1c2c(nc3ccccc13)CCCC2)C(=O)NCCNc1c2c(nc3ccccc13)CCCC2
- Ki (Acetylcholinesterase): 6.21 nM
- Ki (Cholinesterase): 25.1 nM

Structure (SMILES): N[C@@H](Cc1c[nH]c2ccccc12)C(=O)NCCNc1c2c(nc3ccccc13)CCCC2
- Ratio Ki [1]: 210
- Ki (Acetylcholinesterase): 280 nM
- Ki (Cholinesterase): 1.33 nM

Structure (SMILES): CN[C@@H](Cc1c[nH]c2ccccc12)C(=O)NCC(=O)Nc1c2c(nc3ccccc13)CCCC2
- Ki (Acetylcholinesterase): 3330 nM
- Ki (Cholinesterase): 1760 nM

Structure (SMILES): N[C@@H](Cc1ccccc1)C(=O)NCC(=O)Nc1c2c(nc3ccccc13)CCCC2
- Ki (Acetylcholinesterase): 1910 nM
- Ki (Cholinesterase): 708 nM

Structure (SMILES): CN[C@@H](Cc1ccccc1)C(=O)NCC(=O)Nc1c2c(nc3ccccc13)CCCC2
- Ki (Acetylcholinesterase): 6320 nM
- Ki (Cholinesterase): 1200 nM

Structure (SMILES): N[C@@H](Cc1ccc2ccccc2c1)C(=O)NCC(=O)Nc1c2c(nc3ccccc13)CCCC2
- Ki (Acetylcholinesterase): 11200 nM
- Ki (Cholinesterase): 252 nM

Structure (SMILES): CC(C)(C)OC(=O)N[C@@H](Cc1c[nH]c2ccccc12)C(=O)NCCC(=O)Nc1c2c(nc3ccccc13)CCCC2
- Ki (Acetylcholinesterase): 7970 nM
- Ki (Cholinesterase): 443 nM

Structure (SMILES): CC(C)(C)OC(=O)N[C@@H](Cc1c[nH]c2ccccc12)C(=O)NCCNc1c2c(nc3ccccc13)CCCC2
- Ki (Acetylcholinesterase): 130 nM
- Ki (Cholinesterase): 1.87 nM

Structure (SMILES): N[C@@H](Cc1c[nH]c2ccccc12)C(=O)NCC(=O)Nc1c2c(nc3ccccc13)CCCC2
- Ki (Acetylcholinesterase): 2210 nM
- Ki (Cholinesterase): 251 nM

Structure (SMILES): CC(C)(C)OC(=O)N[C@@H](CCC(=O)NCCNc1c2c(nc3ccccc13)CCCC2)C(=O)NCCNc1c2c(nc3ccccc13)CCCC2
- Ki (Acetylcholinesterase): 15.4 nM
- Ki (Cholinesterase): 12.6 nM

Structure (SMILES): O=C(NCCCCCNc1c2c(nc3ccccc13)CCCC2)[C@@H]1CCCN1CCNc1c2c(nc3ccccc13)CCCC2
- Ki (Acetylcholinesterase): 6.75 nM
- Ki (Cholinesterase): 1.77 nM
